Measured values: patent US20060074109A1, “Use of inhibitors of 24-hydroxylase in the treatment of cancer” (Sapphire Therapeutics, Inc., priority 2004, published 2006)

Key:
24OHase in OVCAR-3 cells = biological target: T1, 24OHase in OVCAR-3 cells (Homo sapiens, UniProt Q07973); assay: Metabolic analysis of 25(OH)D3: 24,25(OH)2D3 production; format: cell-based; details: for amount of 24,25(OH)2D3 relative to 0 hr: first experiment
T1 construct: Also, 24OHase is expressed in OVCAR-3 cells; endogenous in cells; host or cells: OVCAR-3
T1 sequence (Q07973 36-514): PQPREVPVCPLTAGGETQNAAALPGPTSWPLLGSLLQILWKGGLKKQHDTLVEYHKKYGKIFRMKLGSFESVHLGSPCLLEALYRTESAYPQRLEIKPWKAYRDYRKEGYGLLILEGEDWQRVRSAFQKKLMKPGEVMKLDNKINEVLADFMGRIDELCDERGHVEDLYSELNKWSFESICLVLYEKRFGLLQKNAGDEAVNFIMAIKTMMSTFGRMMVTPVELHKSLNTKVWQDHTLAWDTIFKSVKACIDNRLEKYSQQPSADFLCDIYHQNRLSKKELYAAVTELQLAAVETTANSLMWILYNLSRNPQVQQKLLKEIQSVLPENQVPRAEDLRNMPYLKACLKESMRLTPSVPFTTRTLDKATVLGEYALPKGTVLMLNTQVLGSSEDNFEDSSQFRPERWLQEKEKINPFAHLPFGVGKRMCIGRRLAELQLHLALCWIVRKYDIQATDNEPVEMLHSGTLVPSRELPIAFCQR
Method: OVCAR-3 cells (1.5×10^6 cell/flask) were plated on T25 culture flasks. One day after plating, cells were treated with 500 nM 25(OH)D3 in RPMI 1640 medium supplemented with 10% FBS, 10 μg/ml insulin, 0.25% glucose and antibiotics (100 IU/ml penicillin, 100 μg/ml streptomycin). After 0, 3 or 24 hr, the medium was collected and the cell monolayer was extracted with 1 ml methanol. After 15 min incubation at room temperature, the methanol was transformed into the same tube than the sample medium. The samples for the measurement of the 25(OH)D3 metabolites were purified using the acetonitrile-C 18 Sep-Pak (Waters Corporation, Milford, Mass.) procedure (Turnbull, H., Trafford, D. J., Makin, H. L., “A Rapid and Simple Method for the Measurement of Plasma 25-hydroxyvitamin D2 and 25-hydroxyvitamin D3 Using Sep-Pak C 18 Cartridges and a Single High-Performance Liquid Chromatographic Step,” Clin. Chim. Acta., 120:65-76 (1982)) followed by separation of the metabolites by a high-performance liquid chromatography. […] The second measurement was done following the same procedure except dextran charcoal-treated FBS was used instead of FBS, 24OHase inhibitor (200 nM VID400) was used with the 500 nM 25(OH)D3 treatment, and the samples were collected only after 0 and 24 hr.

[1] = test system: DU145 prostate cancer cells; assay: Cell growth, methylene blue uptake (Experiment VI); format: cell-based; details: VID400+calcitriol
Method: (§1) Culture conditions were the same as for Experiment I. Cell growth was measured using uptake of methylene blue (0.5% in 50% ethanol), followed by air drying and release of the dye in 1% sodium N-lauroyl sarcosine in PBS.

[2] = test system: CWR22Rv-1 prostate cancer cells; assay: Cell growth, methylene blue uptake (Experiment VI); format: cell-based; details: VID400+calcitriol
Method: as §1

[3] = test system: PC3 prostate cancer cells; assay: Cell growth, methylene blue uptake (Experiment VI); format: cell-based; details: VID400+calcitriol
Method: as §1

[4] = test system: OVCAR-3 ovarian cancer cells; assay: Cell growth, methylene blue uptake (Experiment VI); format: cell-based, human; details: 200 nM VID400 with calcitriol
Method: as §1

[5] = test system: 24OHase mRNA in OVCAR-3 cells; assay: Quantitative RT-PCR of 24OHase mRNA; format: cell-based, human; details: 100 nM
Method: Ethanol was used as a vehicle, and it was also added to the control cells. For RNA extraction, the cells were collected 4, 6 and 24 hr after the treatment with vitamin D compound or vehicle. RNA extractions were done with TRIZOL reagent (GIBCO Invitrogen Corporation, Paisley, UK). The integrity of RNA samples was confirmed on gel electrophoresis. […] The reactions for 24-hydroxylase were performed in the LightCycler instrument (Roche Diagnostics, Basel, Switzerland) from 300 ng total RNA. PBGD (human porphobilinogendeaminase) mRNA was used as an […] control. […] Nucleotides, Tth DNA polymerase (DNA polymerase and reverse transcriptase activity), SYBR Green I and reaction buffer were included in the LightCycler-RNA Master SYBR Green I kit (Roche Diagnostics). […] Cell. […] Detection of fluorescent product was performed at the end of the extension step of each cycle. To verify the specific products, melting curve analysis and gel electrophoresis were done. The data were quantified by the Fit Points method with LightCycler Data Analysis software. […] Hormone treatments and RT-PCR were done twice.

SMILES	production of 24,25(OH)2D3 compared to 500 nM 25(OH)D3 treatment alone (24OHase in OVCAR-3 cells; 200 nM VID400 + 500 nM 25(OH)D3, 24 hr, second experiment)	24,25(OH)2D3 (24OHase in OVCAR-3 cells; 500 nM 25(OH)D3 + 200 nM VID400, 24 hr, experiment II (dextran charcoal-treated FBS))	effect on cell growth [1]	effect on cell growth [2]	effect on cell growth [3]	effect on cell growth [4]	24,25(OH)2D3 (24OHase in OVCAR-3 cells; 500 nM 25(OH)D3, 0 hr, experiment I (FBS))	24,25(OH)2D3 (24OHase in OVCAR-3 cells; 500 nM 25(OH)D3, 0 hr, experiment II (dextran charcoal-treated FBS))	24,25(OH)2D3 (24OHase in OVCAR-3 cells; 500 nM 25(OH)D3, 3 hr, experiment I (FBS))	amount of 24,25(OH)2D3 relative to 0 hr (24OHase in OVCAR-3 cells; 500 nM 25(OH)D3, 3 hr)	24,25(OH)2D3 (24OHase in OVCAR-3 cells; 500 nM 25(OH)D3, 24 hr, experiment I (FBS))	24,25(OH)2D3 (24OHase in OVCAR-3 cells; 500 nM 25(OH)D3, 24 hr, experiment II (dextran charcoal-treated FBS))	amount of 24,25(OH)2D3 relative to 0 hr (24OHase in OVCAR-3 cells; 500 nM 25(OH)D3, 24 hr)	concentration of 24,25(OH)2D3 relative to 0 hr (24OHase in OVCAR-3 cells; 500 nM 25(OH)D3, 24 hr, second experiment)	induction of 24OHase mRNA expression ([5]; 6 hr treatment)	induction of 24OHase mRNA expression ([5]; 24 hr treatment)
O=C(NC[C@@H](c1ccccc1)n1ccnc1)c1ccc(-c2ccc(Cl)cc2)cc1 [VID400, 2-(R)-4′-Chlorobiphenyl-4-carboxylic acid (2-imidazol-1-yl-2-phenyl-ethyl)-amide]	reduced to one-third	8 nM	synergistic inhibition of growth	synergistic inhibition of growth	synergistic inhibition of growth	produced a further inhibition which was synergistic with calcitriol	–	–	–	–	–	–	–	–	–	–
C=C1CC[C@H](O)C/C1=C/C=C1\CCC[C@]2(C)[C@@H]([C@H](C)CCCC(C)(C)O)CC[C@@H]12 [25(OH)D3, monohydroxyvitamin D3]	–	–	–	–	–	–	6 nM	1 nM	24 nM	4 times	112 nM	27 nM	18 fold	27 times	3 fold	0.5 fold
